How the values were obtained:
Assay type in all cases: cell-based, human
MIA PaCa-2 cells = assay: Trypan blue cell death, δ-tocotrienol, 5-FU or combination, 24 hours; settings: MIA PaCa-2, 50 μM each
Protocol: MIA PaCa-2 cells were treated vehicle or an anti-proliferative treatment comprising 50 μM δ-tocotrienol, 50 μM 5-FU, or 50 μM δ-tocotrienol and 50 μM 5-FU for 24 hours. Cells were harvested, fixed, permeablized and stained with trypan blue.

MIA PaCa2 cells = assay: MTT cell viability, δ-tocotrienol, fluorouracil or combination
Protocol: FIG. 39 is a graph MIA PaCa2 pancreatic cancer cells (3×10^3) treated with indicated concentrations of delta-tocotrienol, fluorouracil (5FU), or a combination of the indicated delta-tocotrienol and 5FU.
The MiaPaCa 2 cells were plated as above into 96 well plates and treated the following day with increasing concentrations of δ-tocotrienol, fluorouracil (5FU), or a combination of δ-tocotrienol and fluorouracil. The cells were collected and analyzed for cell viability using an MTT assay. […] MIA PaCa2 cells (3×10^3) were cultured as described in the Examples above, in 96-well plates and treated the following day with vehicle, δ-tocotrienol, fluorouracil, or a combination of δ-tocotrienol and fluorouracil.

[1] = test system: MiaPaCa2 pancreatic cancer cells; assay: Malignant transformation (Soft Agar) colony formation; settings: MiaPaCa2, 50 μM, vs vehicle
Protocol: FIG. 20 is a graph showing the effect of tocotrienols on pancreatic cancer malignant transformation (Soft Agar). […] Bars, SE (n=3). *p<0.001 vs. vehicle. **p<0.02 vs. vehicle. ***p<0.05 vs. vehicle. T=tocopherol, T3=tocotrienol.
MiaPaCa2 cells (3×10^3) were cultured as described in the Examples above, in 96-well plates and treated with 50 μM of different tocopherol or tocotrienol.

[2] = test system: MIA PaCa-2 cells (pZWL vector and myrAKT); assay: Cell death (trypan blue) in vector and myrAKT MIA PaCa-2 cells; settings: MIA PaCa-2 vector vs myr-AKT cells, 24 hours, compared to vehicle
Protocol: FIG. 12 is a graph wherein MIA PaCa-2 cells (pZWL vector and myrAKT) were treated without serum vehicle or δ-tocotrienol (50 μM) for 24 hours, with and without a 10-hour caspase 8/3 inhibitor pretreatment. Cells were also treated with TRAIL as a positive control. Cells were then harvested, fixed, permeablized and stained with trypan blue.
To further identify the role of AKT in the apoptotic pathways noted in Example 2, functional overexpression of CA-AKT was analyzed in Mia-PaCa2 pancreatic cancer cells. MIA PaCa-2 cells were treated with pZWL vector and myrAKT, a retroviral vector encoding myristoylated AKT, with or without serum, vehicle, or δ-tocotrienol (40 or 50 μM) for 24 hours, with and without a 10-hour caspase 8 inhibitor pretreatment. Cells were also treated with TRAIL as a positive control. Cells were then harvested, fixed, permeablized and stained with trypan blue.
The myristoylated AKT rescued δ-tocotrienol suppression PI3K-AKT signaling. The MiaPaCa-2 parental cell lines were stably transfected using constitutively active myristoylated AKT in a pWZL vector construct to generate MiaPaCa-2AKT cells. […] Lastly, pretreatment with caspase 3, 8 and 9 inhibitors rescued tocotrienol induced cell death.

O=c1[nH]cc(F)c(=O)[nH]1 [5-FU, fluorouracil]
cell death (Trypan Blue) (MIA PaCa-2 cells): increased cell death | concentration at which the effect became significant vs vehicle (MIA PaCa2 cells): 50 µM

Cc1cc(O)cc2c1O[C@](C)(CCC[C@H](C)CCC[C@H](C)CCCC(C)C)CC2 [δ-tocopherol]
malignant transformation (Soft Agar) [1]: no effect

B1: TRAIL: positive control for cell death (protein, UniProt P50591 1-281, looked up)
Tumor necrosis factor ligand …: MAMMEVQGGPSLGQTCVLIVIFTVLLQSLCVAVTYVYFTNELKQMQDKYSKSGIACFLKEDDSYWDPNDEESMNSPCWQVKWQLRQLVRKMILRTSEETISTVQEKQQNISPLVRERGPQRVAAHITGTRGRSNTLSSPNSKNEKALGRKINSWESSRSGHSFLSNLHLRNGELVIHEKGFYYIYSQTYFRFQEEIKENTKNDKQMVQYIYKYTSYPDPILLMKSARNSCWSKDAEYGLYSIYQGGIFELKENDRIFVSVTNEHLIDMDHEASFFGAFLVG
cell death [2]: comparable to vehicle
